We go through 4 compounds from article PMC9562916, “Investigation of the Phenolic Component Bioavailability Using the In Vitro Digestion/Caco-2 Cell Model, as well as the Antioxidant Activity in Chinese Red Wine” (Foods, 2022).

Molecules are shown by their SMILES. Where two headings read alike, the source gives them in different places. Marks after values point to notes of the source that are not given here.

Data set [1] is described as follows: PC content of red wine before and after in vitro simulated gastrointestinal digestion (HPLC). The data set is classed as in vitro ADME. The note with it: for PC Contents, Cabernet, After Digestion: Cabernet red wine; for PC Contents, Cabernet, After Digestion / PC Contents, Tianzhu, After Digestion / PC Contents, Helanshan, After Digestion: after simulated gastrointestinal digestion; for PC Contents, Helanshan, After Digestion: Helanshan red wine. The method, then:
The digestion procedure was carried out by adapting the method of Brodkorb et al. and Gómez et al.. […] One milliliter (50 units/mL) of porcine amylase was prepared in a 15 mM Na₃PO₄ buffer solution (pH adjusted to 6.8) containing 1.5 mM CaCl2, and it was added to the red wine solution. After 5 min, 4.5 mL of 0.12 M HCl was added to the mixture to adjust the pH to 2.4. One milliliter of porcine pepsin (0.02 mg/L) was dissolved in a 20 mM HCl solution. The mixture was then maintained at 37 °C for 120 min. The digestion mixture was then centrifuged at 8000× g for 15 min to obtain samples from the gastric digestion phase. […] The mixture was incubated at pH 6.5 at 37 °C for 3 h before being centrifuged. The extracts of the intestinal phase were the supernatants. The same operation was done three times, and each sample was stored in a refrigerator (−20 °C) immediately for further analysis.
The Pati method was adopted, with slight modifications, to measure the content of the PCs. The Agilent 1100 series HPLC instrument was used; it was equipped with a degasser, quaternary pump solvent delivery, a DAD system, and a single quadrupole mass detector coupled with an electrospray ionization LC–MS interface. Briefly, th samples were injected into a Zorbax SB C18 reversed-phase column (5 µm,150 × 2.1 mm, Agilent Technologies, Santa Clara, CA, USA) using an autosampler after filtering through 0.45 µm cellulose acetate syringe filters. The column temperature was kept at 30 °C, the injection volume was 10 µL, and the flow rate was 0.3 mL/min. The eluents were water and formic acid in a 99:1 (v/v) (A) ratio and 100% acetonitrile (B). […] The MS configuration was as follows: ESI, negative ion mode, nebulizer pressure of 30 psi, a dry gas flow rate of 10 mL/min, dry gas temperature of 350 °C, and a scan rate of 100~1200 m/z. PCs were determined according to their retention times, UV/VIS spectra, and high-resolution MS spectra, in addition to a comparison with the standards. […] Putative annotations were made using spectral features and literature information on the chromatographic properties and mass spectra records from the metabolome database. A standard curve was drawn using methanol solutions with different concentrations as the standards. The limits of detection and quantitation were calculated according to the signal-to-noise ratio (limit of detection: signal-to-noise ratio ≥ 3; limit of quantitation: signal-to-noise ratio ≥ 10). […] PCs All of the samples were determined in triplicate.

Data set [2] in a line: Caco-2 transepithelial transport assay of digested red wine. Format: in vitro ADME, human. The conditions noted are these: human. The method, then:
(§1) Caco-2 cells were inoculated following the method of Hubatsch et al. […] Briefly, a 5% v/v of CO2 incubator at 37 °C was used to house the cells. […] Caco-2 cells were sub-cultured when they reached 80-90% of the adherent growth by treating them with a 0.05% v/v of trypsin-EDTA solution. The culture between passages 35 and 40 was used for the following experiment. Transport experiments were performed according to the method of Wu et al. with slight modifications. First, 1.0 × 10^5 Caco-2 cells were inoculated onto 12 mm transparent cell culture plates (Transwell). Media were carefully injected into the apical (0.5 mL) and basolateral (1.5 mL) sides of the Transwell plates. The cell culture medium had to be replaced every other day until the cells formed a monolayer. The integrity and transport ability of the Caco-2 cell monolayer were evaluated by measuring the trans-epithelial electrical resistance (TEER) with a MilliCell voltammeter (Millicell ERS-2, Merck Millipore, Billerica, MA, USA). […] When the cell activity exceeded 0.9, a transport experiment was conducted. The apical side was injected with a digested red wine sample (0.5 mL) and was thoroughly mixed with […] Balanced Salt Solution (HBSS) buffer solution. […] The cells were then cultured in a 37 °C, 5% CO2 incubator. Then, 0.25 mL samples were separately taken from the basolateral side of the monolayer. An equal volume of HBSS buffer was then added every half hour from the beginning of the culture until the end of the culture at 6 h. The collected samples were subsequently filtered and placed in the sample bottle for further HPLC analysis. This experiment was repeated several times to collect enough samples for the next antioxidant test. […] The Agilent 1100 series HPLC instrument was used; it was equipped with a degasser, quaternary pump solvent delivery, a DAD system, and a single quadrupole mass detector coupled with an electrospray ionization LC-MS interface. […] The column temperature was kept at 30 °C, the injection volume was 10 μL, and the flow rate was 0.3 mL/min. The eluents were water and formic acid in a 99:1 (v/v) (A) ratio and 100% acetonitrile (B). The gradient elution procedure was as follows: (1) 3% B solvent at 0 min, (2) 3 to 16% B solvent at 10 min, (3) 16 to 20% B solvent at 30 min, and (4) 20% B solvent maintained until the procedure was completed. The MS configuration was as follows: ESI, negative ion mode, nebulizer pressure of 30 psi, a dry gas flow rate of 10 mL/min, dry gas temperature of 350 °C, and a scan rate of 100~1200 m/z. PCs were determined according to their retention times, UV/VIS spectra, and high-resolution MS spectra, in addition to a comparison with the standards. […] If a standard was unavailable, a structurally related compound was used. Putative annotations were made using spectral features and literature information on the chromatographic properties and mass spectra records from the metabolome database. A standard curve was drawn using methanol solutions with different concentrations as the standards. […] PCs All of the samples were determined in triplicate.
In general terms: Caco-2 monolayers are a common model of the intestinal barrier.

A further data set concerns Caco-2 cell monolayer. The data set is described as above. The data set is classed as in vitro ADME, human. The conditions noted are these: digested sample, basolateral side of Caco-2 monolayer; for PC Contents, Cabernet, Transmembrane: Cabernet red wine; for PC Contents, Helanshan, Transmembrane: Helanshan red wine; for PC Contents, Tianzhu, Transmembrane: Tianzhu red wine. The method, then: as §1

[3] abbreviates: Caco-2, apical to basolateral, digested Cabernet red wine, read-out: Apparent Permeability Coefficients, Cabernet.
[4] abbreviates: Caco-2, apical to basolateral, digested Helanshan red wine, read-out: Apparent Permeability Coefficients, Helanshan.
[5] abbreviates: Caco-2, apical to basolateral, digested Tianzhu red wine, read-out: Apparent Permeability Coefficients, Tianzhu.

Consider `O=C(/C=C/c1ccc(O)c(O)c1)O[C@@H](C(=O)O)[C@@H](O)C(=O)O` [Caftaric acid], for which the “PC Contents, Cabernet, After Digestion” value in data set [1] was 3.01 ± 0.17 ^b mg/L. For the same compound, the “PC Contents, Tianzhu, After Digestion” value in data set [1] (Tianzhu red wine) is recorded as 5.35 ± 0.23 ^b mg/L. Also, in data set [2] (setting [3]), the Papp at 6 h came out at 8.93 ± 1.02 ×10⁻⁶ cm/s. Moreover, in data set [2] (setting [4]), the Papp at 6 h amounted to 8.77 ± 1.28 ×10⁻⁶ cm/s. Also, in data set [2] (setting [5]), the Papp at 6 h was 8.45 ± 1.31 ×10⁻⁶ cm/s. Also, in the data set with Caco-2 cell monolayer, the “PC Contents, Cabernet, Transmembrane” value is recorded as 0.43 ± 0.01 ^a mg/L; the “PC Contents, Helanshan, Transmembrane” value is given as 0.49 ± 0.02 ^a mg/L; the “PC Contents, Tianzhu, Transmembrane” value is recorded as 1.07 ± 0.03 ^a mg/L.
`O=C(O)c1cc(O)c(O)c(O)c1` [Gallic acid]: in data set [1], the “PC Contents, Cabernet, After Digestion” value was 9.08 ± 0.44 ^b mg/L. For the same compound, in data set [1] (Tianzhu red wine), the “PC Contents, Tianzhu, After Digestion” value is on record as 6.91 ± 0.26 ^b mg/L. For the same compound, the bioavailability (commonly dose-corrected exposure relative to a reference, in per cent) in data set [2] (Caco-2) stood at 24%. For the same compound, the Papp at 6 h in data set [2] (Caco-2, Apparent Permeability Coefficients, Cabernet) was 31.7 ± 3.82 ×10⁻⁶ cm/s. Besides, the Papp at 6 h in data set [2] (Caco-2, Apparent Permeability Coefficients, Helanshan) worked out at 30.9 ± 3.99 ×10⁻⁶ cm/s. For the same compound, the Papp at 6 h in data set [2] (Caco-2, Apparent Permeability Coefficients, Tianzhu) was found to be 32.8 ± 4.13 ×10⁻⁶ cm/s. For the same compound, in the data set with Caco-2 cell monolayer, the “PC Contents, Cabernet, Transmembrane” value was 4.61 ± 0.23 ^a mg/L; the “PC Contents, Helanshan, Transmembrane” value is recorded as 2.53 ± 0.14 ^a mg/L; the “PC Contents, Tianzhu, Transmembrane” value was 1.38 ± 0.05 ^a mg/L.
For the compound `CCOC(=O)c1cc(O)c(O)c(O)c1` [Ethyl gallate], in data set [1], the “PC Contents, Cabernet, After Digestion” value is listed as 38.42 ± 1.88 ^b mg/L and the “PC Contents, Helanshan, After Digestion” value is 30.18 ± 0.94 ^b mg/L. Besides, the “PC Contents, Tianzhu, After Digestion” value in data set [1] (Tianzhu red wine) is recorded as 40.83 ± 1.51 ^b mg/L. For the same compound, the Papp at 6 h in data set [2] (setting [3]) came to 17.4 ± 2.73 ×10⁻⁶ cm/s. Also, the Papp at 6 h in data set [2] (setting [4]) was 17.9 ± 2.88 ×10⁻⁶ cm/s. Besides, in data set [2] (setting [5]), the Papp at 6 h came out at 18.3 ± 3.02 ×10⁻⁶ cm/s. Further, in the data set with Caco-2 cell monolayer, the “PC Contents, Cabernet, Transmembrane” value is reported as 10.70 ± 0.33 ^a mg/L; the “PC Contents, Helanshan, Transmembrane” value was 8.64 ± 0.36 ^a mg/L; the “PC Contents, Tianzhu, Transmembrane” value is 8.13 ± 0.28 ^a mg/L.
Consider `O=c1c(O[C@@H]2O[C@H](CO)[C@@H](O)[C@H](O)[C@H]2O)c(-c2ccc(O)c(O)c2)oc2cc(O)cc(O)c12` [Isoquercetin], for which, in data set [1], the “PC Contents, Cabernet, After Digestion” value was 13.46 ± 0.59 ^b mg/L and the “PC Contents, Helanshan, After Digestion” value is 12.01 ± 0.37 ^b mg/L. Further, the “Increase in content after digestion” value in data set [1] (Tianzhu red wine, after digestion vs undigested) is on record as 9.8%. Also, in data set [1] (Tianzhu red wine), the “PC Contents, Tianzhu, After Digestion” value was 19.13 ± 0.69 ^b mg/L. The Papp at 6 h in data set [2] (setting [3]) came to 3.84 ± 0.29 ×10⁻⁶ cm/s. In addition, in data set [2] (setting [4]), the Papp at 6 h was found to be 3.73 ± 0.27 ×10⁻⁶ cm/s. Moreover, the Papp at 6 h in data set [2] (setting [5]) is 3.87 ± 0.23 ×10⁻⁶ cm/s. Besides, in the data set on Caco-2 cell monolayer, the “PC Contents, Cabernet, Transmembrane” value is given as 0.83 ± 0.04 ^a mg/L; the “PC Contents, Helanshan, Transmembrane” value is listed as 0.72 ± 0.04 ^a mg/L; the “PC Contents, Tianzhu, Transmembrane” value is reported as 3.81 ± 0.18 ^a mg/L.
